Where two headings read alike, the source gives them in different places.
Test: Plasma concentrations (PK), Example 1
Assay type: in vivo, human
Conditions: for level at 1344 h: Week 8; for level at 168 h: Week 1, Trough; for level at 672 h: Week 4
Protocol: For QD dosing, peak concentration was defined as any PK sample taken between 0.25 to <6 hours after the last morning dose and trough concentration was at least 20 hours after the last morning dose. For BID dosing, peak concentration was defined as any PK sample taken between 0.25 to <4 hours after the last dose and trough concentration was at least 8 hours after the last dose.

[1] = human, plasma, oral, 50 mg, 50 mg QD, Peak, read-out: Plasma concentration, Geometric Mean
[2] = human, plasma, oral, 50 mg, 50 mg QD, Peak, read-out: Plasma concentration, Mean
[3] = human, plasma, oral, 50 mg, 50 mg QD, Peak, read-out: Plasma concentration, Median
[4] = human, plasma, oral, 100 mg, 100 mg BID, Intermediate, read-out: Plasma concentration, Geometric Mean
[5] = human, plasma, oral, 100 mg, 100 mg BID, Peak, read-out: Plasma concentration, Geometric Mean
[6] = human, plasma, oral, 100 mg, 100 mg BID, Peak, read-out: Plasma concentration, Mean
[7] = human, plasma, oral, 100 mg, 100 mg BID, Peak, read-out: Plasma concentration, Median
[8] = human, plasma, oral, 100 mg, 100 mg QD, Intermediate, read-out: Plasma concentration, Geometric Mean
[9] = human, plasma, oral, 100 mg, 100 mg QD, Peak, read-out: Plasma concentration, Geometric Mean
[10] = human, plasma, oral, 100 mg, 100 mg QD, Peak, read-out: Plasma concentration, Mean
[11] = human, plasma, oral, 100 mg, 100 mg QD, Peak, read-out: Plasma concentration, Median

## CC(=O)NCCCC[C@@H]1NC(=O)[C@H](Cc2c[nH]c3c(C)cccc23)NC(=O)[C@H]([C@@H](C)O)NC(=O)[C@H](CC(N)=O)NC(=O)[C@@H](NC(C)=O)C(C)(C)SSC(C)(C)[C@@H](C(=O)N[C@@H](Cc2ccc(OCCN)cc2)C(=O)N[C@@H](Cc2ccc3ccccc3c2)C(=O)NC2(C(=O)N[C@@H](CCC(=O)O)C(=O)N[C@@H](CC(N)=O)C(=O)N[C@@H](Cc3cccnc3)C(=O)N(C)CC(N)=O)CCOCC2)NC1=O [IL-23 receptor antagonist peptide, Ac-[Pen]*-N-T-[W(7-Me)]-[Lys(Ac)]-[Pen]*-Phe[4-(2-aminoethoxy)]-[2-Nal]-[THP]-E-N-[3-Pal]-Sarc-NH2 (*[Pen]-[Pen]* formdisulfidebond)]
human, plasma, oral, 25 mg, 25 mg QD, Trough, read-out: Plasma concentration, Median
  level at 1344 h: 0.06 ng/mL
human, plasma, oral, 25 mg, 25 mg QD, Week 12, Trough, read-out: Plasma concentration, Mean
  level at 2016 h: 0.052 ng/mL
human, plasma, oral, 25 mg, weight >90 kg, 25 mg BID, Week 12, Intermediate, read-out: Plasma concentration, Geometric Mean
  level at 2016 h: 0.214 ng/mL
human, plasma, oral, 25 mg, weight >90 kg, 25 mg BID, Week 12, Peak, read-out: Plasma concentration, Geometric Mean
  level at 2016 h: 0.32 ng/mL
human, plasma, oral, 25 mg, weight >90 kg, 25 mg BID, Week 12, Peak, read-out: Plasma concentration, Mean
  level at 2016 h: 0.391 ng/mL
human, plasma, oral, 25 mg, weight >90 kg, 25 mg BID, Week 12, Peak, read-out: Plasma concentration, Median
  level at 2016 h: 0.365 ng/mL
human, plasma, oral, 25 mg, weight >90 kg, 25 mg BID, Week 16, Intermediate, read-out: Plasma concentration, Mean
  level at 2688 h: 0.181 ng/mL
human, plasma, oral, 25 mg, weight >90 kg, 25 mg BID, Week 16, Trough, read-out: Plasma concentration, Geometric Mean
  level at 2688 h: 0.144 ng/mL
human, plasma, oral, 25 mg, weight >90 kg, 25 mg BID, Week 16, Trough, read-out: Plasma concentration, Mean
  level at 2688 h: 0.152 ng/mL
human, plasma, oral, 25 mg, weight >90 kg, 25 mg BID, Week 16, Trough, read-out: Plasma concentration, Median
  level at 2688 h: 0.138 ng/mL
human, plasma, oral, 25 mg, weight >90 kg, 25 mg QD, read-out: Plasma concentration, Mean
  level at 168 h: 0.044 ng/mL
human, plasma, oral, 25 mg, weight >90 kg, 25 mg QD, Week 12, Peak, read-out: Plasma concentration, Geometric Mean
  level at 2016 h: 0.236 ng/mL
human, plasma, oral, 25 mg, weight >90 kg, 25 mg QD, Week 12, Peak, read-out: Plasma concentration, Mean
  level at 2016 h: 0.281 ng/mL
human, plasma, oral, 25 mg, weight >90 kg, 25 mg QD, Week 12, Peak, read-out: Plasma concentration, Median
  level at 2016 h: 0.291 ng/mL
human, plasma, oral, 25 mg, weight >90 kg, 25 mg QD, Week 16, Intermediate, read-out: Plasma concentration, Mean
  level at 2688 h: 0.165 ng/mL
human, plasma, oral, 25 mg, weight >90 kg, 25 mg QD, Week 16, Trough, read-out: Plasma concentration, Geometric Mean
  level at 2688 h: 0.063 ng/mL
human, plasma, oral, 25 mg, weight >90 kg, 25 mg QD, Week 16, Trough, read-out: Plasma concentration, Mean
  level at 2688 h: 0.066 ng/mL
human, plasma, oral, 25 mg, weight >90 kg, 25 mg QD, Week 16, Trough, read-out: Plasma concentration, Median
  level at 2688 h: 0.047 ng/mL
human, plasma, oral, 25 mg, weight ≤90 kg, 25 mg QD, Week 12, Trough, read-out: Plasma concentration, Mean
  level at 2016 h: 0.045 ng/mL
[1]
  level at 672 h: 0.481 ng/mL
  level at 1344 h: 0.853 ng/mL
[2]
  level at 672 h: 0.564 ng/mL
  level at 1344 h: 1.1 ng/mL
[3]
  level at 672 h: 0.539 ng/mL
  level at 1344 h: 0.78 ng/mL
human, plasma, oral, 50 mg, 50 mg QD, Intermediate, read-out: Plasma concentration, Geometric Mean
  level at 1344 h: 0.441 ng/mL
human, plasma, oral, 50 mg, 50 mg QD, Intermediate, read-out: Plasma concentration, Mean
  level at 1344 h: 0.441 ng/mL
human, plasma, oral, 50 mg, 50 mg QD, Intermediate, read-out: Plasma concentration, Median
  level at 1344 h: 0.441 ng/mL
human, plasma, oral, 50 mg, 50 mg QD, Trough, read-out: Plasma concentration, Geometric Mean
  level at 1344 h: 0.111 ng/mL
human, plasma, oral, 50 mg, 50 mg QD, Trough, read-out: Plasma concentration, Mean
  level at 1344 h: 0.147 ng/mL
human, plasma, oral, 50 mg, 50 mg QD, Trough, read-out: Plasma concentration, Median
  level at 1344 h: 0.112 ng/mL
human, plasma, oral, 50 mg, 50 mg QD, Week 12, Trough, read-out: Plasma concentration, Mean
  level at 2016 h: 0.085 ng/mL
human, plasma, oral, 50 mg, weight >90 kg, 50 mg QD, read-out: Plasma concentration, Mean
  level at 168 h: 0.073 ng/mL
human, plasma, oral, 50 mg, weight >90 kg, 50 mg QD, Week 12, Peak, read-out: Plasma concentration, Geometric Mean
  level at 2016 h: 0.551 ng/mL
human, plasma, oral, 50 mg, weight >90 kg, 50 mg QD, Week 12, Peak, read-out: Plasma concentration, Mean
  level at 2016 h: 0.786 ng/mL
human, plasma, oral, 50 mg, weight >90 kg, 50 mg QD, Week 12, Peak, read-out: Plasma concentration, Median
  level at 2016 h: 0.388 ng/mL
human, plasma, oral, 50 mg, weight >90 kg, 50 mg QD, Week 16, Intermediate, read-out: Plasma concentration, Mean
  level at 2688 h: 0.321 ng/mL
human, plasma, oral, 50 mg, weight >90 kg, 50 mg QD, Week 16, Trough, read-out: Plasma concentration, Geometric Mean
  level at 2688 h: 0.105 ng/mL
human, plasma, oral, 50 mg, weight >90 kg, 50 mg QD, Week 16, Trough, read-out: Plasma concentration, Mean
  level at 2688 h: 0.096 ng/mL
human, plasma, oral, 50 mg, weight >90 kg, 50 mg QD, Week 16, Trough, read-out: Plasma concentration, Median
  level at 2688 h: 0.115 ng/mL
human, plasma, oral, 50 mg, weight ≤90 kg, 50 mg QD, Week 12, Trough, read-out: Plasma concentration, Mean
  level at 2016 h: 0.083 ng/mL
[4]
  level at 672 h: 0.756 ng/mL
  level at 1344 h: 0.675 ng/mL
[5]
  level at 672 h: 1.7 ng/mL
  level at 1344 h: 1.86 ng/mL
[6]
  level at 672 h: 2.05 ng/mL
  level at 1344 h: 3.55 ng/mL
[7]
  level at 672 h: 1.84 ng/mL
  level at 1344 h: 1.44 ng/mL
human, plasma, oral, 100 mg, 100 mg BID, Intermediate, read-out: Plasma concentration, Mean
  level at 1344 h: 1.04 ng/mL
human, plasma, oral, 100 mg, 100 mg BID, Intermediate, read-out: Plasma concentration, Median
  level at 1344 h: 0.84 ng/mL
human, plasma, oral, 100 mg, 100 mg BID, Trough, read-out: Plasma concentration, Geometric Mean
  level at 1344 h: 0.664 ng/mL
human, plasma, oral, 100 mg, 100 mg BID, Trough, read-out: Plasma concentration, Mean
  level at 1344 h: 0.961 ng/mL
human, plasma, oral, 100 mg, 100 mg BID, Trough, read-out: Plasma concentration, Median
  level at 1344 h: 0.744 ng/mL
human, plasma, oral, 100 mg, 100 mg BID, Week 12, Trough, read-out: Plasma concentration, Mean
  level at 2016 h: 1.1 ng/mL
[8]
  level at 672 h: 0.683 ng/mL
  level at 1344 h: 0.235 ng/mL
[9]
  level at 672 h: 0.968 ng/mL
  level at 1344 h: 0.892 ng/mL
[10]
  level at 672 h: 1.31 ng/mL
  level at 1344 h: 1.15 ng/mL
[11]
  level at 672 h: 1.34 ng/mL
  level at 1344 h: 0.873 ng/mL
human, plasma, oral, 100 mg, 100 mg QD, Intermediate, read-out: Plasma concentration, Mean
  level at 1344 h: 0.235 ng/mL
human, plasma, oral, 100 mg, 100 mg QD, Intermediate, read-out: Plasma concentration, Median
  level at 1344 h: 0.235 ng/mL
human, plasma, oral, 100 mg, 100 mg QD, Trough, read-out: Plasma concentration, Geometric Mean
  level at 1344 h: 0.175 ng/mL
human, plasma, oral, 100 mg, 100 mg QD, Trough, read-out: Plasma concentration, Mean
  level at 1344 h: 0.229 ng/mL
human, plasma, oral, 100 mg, 100 mg QD, Trough, read-out: Plasma concentration, Median
  level at 1344 h: 0.149 ng/mL
human, plasma, oral, 100 mg, 100 mg QD, Week 12, Trough, read-out: Plasma concentration, Mean
  level at 2016 h: 0.355 ng/mL
human, plasma, oral, 100 mg, weight >90 kg, 100 mg BID, Week 12, Intermediate, read-out: Plasma concentration, Geometric Mean
  level at 2016 h: 0.601 ng/mL
human, plasma, oral, 100 mg, weight >90 kg, 100 mg BID, Week 12, Peak, read-out: Plasma concentration, Geometric Mean
  level at 2016 h: 2.13 ng/mL
human, plasma, oral, 100 mg, weight >90 kg, 100 mg BID, Week 12, Peak, read-out: Plasma concentration, Mean
  level at 2016 h: 6.41 ng/mL
human, plasma, oral, 100 mg, weight >90 kg, 100 mg BID, Week 12, Peak, read-out: Plasma concentration, Median
  level at 2016 h: 1.29 ng/mL
human, plasma, oral, 100 mg, weight >90 kg, 100 mg BID, Week 16, Intermediate, read-out: Plasma concentration, Mean
  level at 2688 h: 0.724 ng/mL
human, plasma, oral, 100 mg, weight >90 kg, 100 mg BID, Week 16, Trough, read-out: Plasma concentration, Geometric Mean
  level at 2688 h: 0.522 ng/mL
human, plasma, oral, 100 mg, weight >90 kg, 100 mg BID, Week 16, Trough, read-out: Plasma concentration, Mean
  level at 2688 h: 0.755 ng/mL
human, plasma, oral, 100 mg, weight >90 kg, 100 mg BID, Week 16, Trough, read-out: Plasma concentration, Median
  level at 2688 h: 0.428 ng/mL
human, plasma, oral, 100 mg, weight >90 kg, 100 mg QD, Week 12, Intermediate, read-out: Plasma concentration, Geometric Mean
  level at 2016 h: 0.75 ng/mL
human, plasma, oral, 100 mg, weight >90 kg, 100 mg QD, Week 12, Peak, read-out: Plasma concentration, Geometric Mean
  level at 2016 h: 1.04 ng/mL
human, plasma, oral, 100 mg, weight >90 kg, 100 mg QD, Week 12, Peak, read-out: Plasma concentration, Mean
  level at 2016 h: 1.04 ng/mL
human, plasma, oral, 100 mg, weight >90 kg, 100 mg QD, Week 12, Peak, read-out: Plasma concentration, Median
  level at 2016 h: 1.09 ng/mL
human, plasma, oral, 100 mg, weight >90 kg, 100 mg QD, Week 16, Intermediate, read-out: Plasma concentration, Mean
  level at 2688 h: 0.378 ng/mL
human, plasma, oral, 100 mg, weight >90 kg, 100 mg QD, Week 16, Trough, read-out: Plasma concentration, Geometric Mean
  level at 2688 h: 0.102 ng/mL
human, plasma, oral, 100 mg, weight >90 kg, 100 mg QD, Week 16, Trough, read-out: Plasma concentration, Mean
  level at 2688 h: 0.11 ng/mL
human, plasma, oral, 100 mg, weight >90 kg, 100 mg QD, Week 16, Trough, read-out: Plasma concentration, Median
  level at 2688 h: 0.129 ng/mL
human, plasma, oral, read-out: Terminal elimination half-life
  half-life: 9 to 12 h
Oral daily dosing
  Attainment of steady state conditions: ≤ 1 Week
